Test results taken from US5605921A, “Triazole derivatives and salts thereof, and antifungal agent containing the same” (Toyama Chemical Co., Ltd., priority 1991, dated 1997).
Values after ≈ are worked out from the molar mass of the structure shown.

Tests used:
Candida albicans ON28 [1] = assay: Minimum inhibitory concentration (MIC) against Candida albicans ON28; type: cell-based; details: ON28, 72 h, TC broth medium, 10^4 spores/ml, 37° C., 3 days
Method: (§1) MIC was determined in accordance with the method of M. S. Marriott [25th Interscience Conference on Antimicrobial Agents and Chemotherapy, p. 243 (1985)].
(§2) Candida albicans ON28 was cultured in a sabouraud dextrose agar medium containing 10 g of neopeptone, 20 g of glucose and 15 g of agar per liter, at 30° C. for 1-2 days. The yeast cells were suspended in sterile distilled water. Separately, Aspergillus fumigatus IFO8868 was cultured in a potato dextrose agar medium (manufactured by Nissui Pharmaceutical Co., Ltd.) at 30° C. until the conidia were formed abundantly. The formed conidia were suspended in a sterile physiological saline containing 0.1% of Tween 80. Each of the Candida albicans suspension and the Aspergillus fumigatus suspension was inoculated into a TC broth medium (containing 1.17 g of an yeast carbon base, 0.25 g of ammonium sulfate, 2.0 ml of a 50-fold concentrate of L-glutamic acid-containing MEM amino acid, 20 ml of a 0.5M phosphate buffer of pH 7.5 and 1.33 ml of 7.5% sodium hydrogencarbonate per 100 ml) containing a test compound, so that the final fungal amount became 10^4 spores/ml. Then, culture was conducted at 37° C. for 3 days. Thereafter, the growth of fungi was examined. The minimum concentration of test compound at which the growth of fungi had been inhibited, was taken as MIC (μg/ml).

[2] = Acute toxicity in mice, intravenous; type: in vivo; details: intravenous at the tail, ICR strain male mice, group of 5; 50% solution in polyethylene glycol 300
Method: Each of the compounds of Examples 10, 12, 19, 79, 142 and 146 was administered to a group of 5 ICR strain male mice (weight: 29-31 g) intravenously at the tails, and the acute toxicity of each compound was examined.
Each compound was administered in the form of a 50% solution in polyethylene glycol 300.

[3] = tested on: Aspergillus fumigatus IFO8868; assay: Therapeutic effect, oral, mice infected with Aspergillus fumigatus IFO8868 (4), Table 2d; type: in vivo; details: average survival days of Ketoconazole taken as 100; Aspergillus fumigatus 5.8×10^6 cells/mouse i.v.; 0.8 mg/mouse oral, 2 hours after infection and once daily for six consecutive days; 10 days observation; 10 mice
Method: (4) The therapeutic effects of the present compounds, when they were administered orally, were examined using mice infected with Aspergillus fumigatus IFO8868.
(§3) Aspergillus fumigatus IFO8868 was injected in a proportion of 5.8×10^6 cells/mouse to a group of 10 ICR strain male mice (weight: 19-21 g) intravenously at the tails, whereby the mice were infected with the fungi. […] The relative therapeutic index of the test compound was determined from the average survival days.
The results are shown in Table 2d, in which the relative therapeutic index of each test compound is a value calculated by taking the average survival days of Ketoconazole as 100.

Candida albicans ON28 [4] = assay: Therapeutic effect, oral, mice infected with Candida albicans ON28 (3), Table 2c; type: in vivo, ICR strain male mice infected with Candida albicans ON28; details: average survival days of Ketoconazole taken as 100; Candida albicans 5.7×10^6 cells/mouse i.v.; 0.1 mg/mouse oral, 2 hours after infection; 10 days observation; 10 mice
Method: (3) The therapeutic effects of the present compounds, when they were administered orally, were examined using mice infected with Candida albicans ON28.
as §3, with “Candida albicans ON28” for “Aspergillus fumigatus IFO8868”, “5.7×10^6” for “5.8×10^6”
The results are shown in Table 2c, in which the relative therapeutic index of each test compound is a value calculated by taking the average survival days Ketoconazole as 100.

[5] = tested on: Aspergillus fumigatus IFO8868; assay: Minimum inhibitory concentration (MIC) against Aspergillus fumigatus IFO8868; type: cell-based; details: IFO8868, 72 h, TC broth medium, 10^4 spores/ml, 37° C., 3 days
Method: as §1, §2

Structure (SMILES) | MIC (Candida albicans ON28 [1]) | dose up to which no dead case occurred (acute toxicity) [2] | Relative therapeutic index [3] | Relative therapeutic index (Candida albicans ON28 [4]) | MIC [5]
NC(=O)C(F)(F)C(O)(Cn1cncn1)c1ccc(F)cc1Cl (stereo not shown) [Example 79] | 0.78 µg/mL (≈ 2.33 µM) | ≥ 200 mg/kg | 400 | 405 | 50 µg/mL (≈ 149 µM)
CC(C)NC(=O)C(F)(F)C(O)(Cn1cncn1)c1ccc(F)cc1F (stereo not shown) [Example 33] | 0.2 µg/mL (≈ 0.555 µM) |  |  |  | 50 µg/mL (≈ 139 µM)
CNC(=O)C(F)(F)C(O)(Cn1cncn1)c1ccccc1F (stereo not shown) [Example 72] | 0.39 µg/mL (≈ 1.24 µM) |  |  |  | 50 µg/mL (≈ 159 µM)
CCNC(=O)C(F)(F)C(O)(Cn1cncn1)c1ccccc1F (stereo not shown) [Example 73] | 0.39 µg/mL (≈ 1.19 µM) |  |  |  | 25 µg/mL (≈ 76.2 µM)
O=C(NC1CCCCC1)C(F)(F)C(O)(Cn1cncn1)c1ccc(F)cc1F (stereo not shown) [Example 21] | ≤ 0.05 µg/mL |  |  |  | 100 µg/mL (≈ 250 µM)
CCNC(=O)C(F)(F)C(O)(Cn1cncn1)c1ccc(Cl)cc1F (stereo not shown) [Example 83] | 0.1 µg/mL (≈ 0.276 µM) |  |  |  | 25 µg/mL (≈ 68.9 µM)
CNC(=O)C(F)(F)C(O)(Cn1cncn1)c1ccc(F)cc1Cl (stereo not shown) [Example 80] | 0.39 µg/mL (≈ 1.12 µM) |  | 416 | 455 | 12.5 µg/mL (≈ 35.8 µM)
CNC(=O)C(F)(F)C(O)(Cn1cncn1)c1ccc(F)cc1F (single isomer, unassigned) [Example 143] | 0.2 µg/mL (≈ 0.602 µM) |  | 242 | 450 | 25 µg/mL (≈ 75.2 µM)
CCNC(=O)C(F)(F)C(O)(Cn1cncn1)c1ccc(F)cc1Cl (stereo not shown) [Example 81] | 0.1 µg/mL (≈ 0.276 µM) |  |  |  | 3.13 µg/mL (≈ 8.63 µM)
Cc1ccc(NC(=O)C(F)(F)C(O)(Cn2cncn2)c2ccc(F)cc2F)cc1 (stereo not shown) [Example 43] | ≤ 0.05 µg/mL |  |  |  | 25 µg/mL (≈ 61.2 µM)
Cc1ccc(NC(=O)C(F)(F)C(O)(Cn2cncn2)c2ccc(F)cc2F)c(C)c1 (stereo not shown) [Example 44] | ≤ 0.05 µg/mL |  |  |  | 1.56 µg/mL (≈ 3.69 µM)
CC1CN(C(=O)C(F)(F)C(O)(Cn2cncn2)c2ccc(F)cc2F)CC(C)O1 (stereo not shown) [Example 39, 4-[3-(2,4-difluorophenyl)-2,2-difluoro-3-hydroxy-4-(1H-1,2,4-triazol-1-yl)butanoyl]-2,6-dimethylmorpholine] | 6.25 µg/mL (≈ 15 µM) |  |  |  | 100 µg/mL (≈ 240 µM)
NC(=O)C(F)(F)C(O)(Cn1cncn1)c1ccc(F)cc1F (stereo not shown) [Example 10, 3-(2,4-difluorophenyl)-2,2-difluoro-3-hydroxy-4-(1H-1,2,4-triazol-1-yl)butanamide] |  | ≥ 200 mg/kg | 200 | 414 | 
COc1ccccc1NC(=O)C(F)(F)C(O)(Cn1cncn1)c1ccc(F)cc1F (stereo not shown) [Example 45] | ≤ 0.05 µg/mL |  |  |  | 50 µg/mL (≈ 118 µM)
CCCNC(=O)C(F)(F)C(O)(Cn1cncn1)c1ccc(F)cc1F (stereo not shown) [Example 16] | ≤ 0.05 µg/mL |  |  |  | 25 µg/mL (≈ 69.4 µM)
CC(C)(C)NC(=O)C(F)(F)C(O)(Cn1cncn1)c1ccc(F)cc1F (stereo not shown) [Example 51] | 0.1 µg/mL (≈ 0.267 µM) |  |  |  | 12.5 µg/mL (≈ 33.4 µM)
COc1ccc(NC(=O)C(F)(F)C(O)(Cn2cncn2)c2ccc(F)cc2F)cc1 (stereo not shown) [Example 139] | 0.05 µg/mL (≈ 0.118 µM) |  |  |  | 12.5 µg/mL (≈ 29.5 µM)
O=C(NC1CC1)C(F)(F)C(O)(Cn1cncn1)c1ccc(F)cc1Cl (single isomer, unassigned) [Example 148] | 0.1 µg/mL (≈ 0.267 µM) |  |  |  | 3.13 µg/mL (≈ 8.35 µM)
O=C(NC1CC1)C(F)(F)C(O)(Cn1cncn1)c1ccccc1Cl (stereo not shown) [Example 3] | 0.39 µg/mL (≈ 1.09 µM) |  |  |  | 12.5 µg/mL (≈ 35 µM)
O=C(NC1(c2ccc(Cl)cc2)CC1)C(F)(F)C(O)(Cn1cncn1)c1ccc(F)cc1F (stereo not shown) [Example 5] | ≤ 0.05 µg/mL |  |  |  | 12.5 µg/mL (≈ 26.7 µM)
O=C(Nc1ccc(C(F)(F)F)cc1)C(F)(F)C(O)(Cn1cncn1)c1ccc(F)cc1F (stereo not shown) [Example 136] | 0.025 µg/mL (≈ 0.0541 µM) |  |  |  | 12.5 µg/mL (≈ 27 µM)
C=CCNC(=O)C(F)(F)C(O)(Cn1cncn1)c1ccc(F)cc1F (stereo not shown) [Example 17] | 0.1 µg/mL (≈ 0.279 µM) |  |  |  | 12.5 µg/mL (≈ 34.9 µM)
